As usually defined, the MIC is the lowest concentration found to suppress growth. Higher therefore signals a less susceptible organism.

These results are taken from US5464796A, “7-isoindolinyl-quinolone-carboxylic acid derivatives” (Bayer Aktiengesellschaft, priority 1991, dated 1995).

Common to all, as to assay: MIC by series dilution on Iso-Sensitest agar
In one test the test system is Klebsiella sp. Type of test: cell-based. The note with it: strain 8085, 37° C., about 20 hours, 10^4 colony-forming particles per spot; for MIC: Klebsiella. The method, then:
(§1) The minimum inhibitory concentrations (MIC) were determined by series dilution methods on Iso-Sensitest agar (Oxoid). A series of agar plates each containing active compound concentrations decreasing by twofold dilution each time were prepared for each test substance. The agar plates were inoculated with a Multipoint inoculator (Denley). Overnight cultures of the pathogens, which were first diluted so that each inoculum spot contained about 10^4 colony-forming particles, were used for the inoculation. The inoculated agar plates were incubated at 37° C. and the germ growth was read off after about 20 hours. The MIC value (μg/ml) indicates the lowest active compound concentration at which no growth was to be detected with the naked eye.
(§2) The MIC values of some of the compounds according to the invention are shown in the following table in comparison with 7-(4-amino-1,3-dihydro-isoindol-2-yl)-1-cyclopropyl-6,8-difluoro-1,4-dihydro-4-oxo-3-quinolinecarboxylic acid (EP 343,560, Example 2).

A further test has as its system Providencia spp. The test is classed as cell-based. Particulars: strain 12012, 37° C., about 20 hours, 10^4 colony-forming particles per spot; for MIC: Providencia, 20 h. The method, then:
as §1, §2

For another test, the system named is Morganella morg. The test is classed as cell-based. Particulars: strain 932, 37° C., about 20 hours, 10^4 colony-forming particles per spot; for MIC: Morganella, 20 h. The procedure:
as §1, §2

For a further test, the system named is Enterocococus faecalis. The test is classed as cell-based, Enterococcus faecalis. The note with it: 37° C., about 20 hours, 10^4 colony-forming particles per spot; for MIC: Enterococcus faecalis, 20 h. The procedure:
as §1, §2

A further test concerns E. coli. The test is classed as cell-based, Escherichia coli. Particulars: 37° C., about 20 hours, 10^4 colony-forming particles per spot; for MIC: Escherichia coli, 20 h. The procedure:
as §1, §2

The subject of the next test is Staphyloccus aureus. Type of test: cell-based, Staphylococcus aureus. The note with it: 37° C., about 20 hours, 10^4 colony-forming particles per spot; for MIC: Staphylococcus aureus, 20 h. The procedure:
as §1, §2

A further test relates to Pseudomonas aeruginasa. The test is classed as cell-based, Pseudomonas aeruginosa. Particulars: strain Walter, 37° C., about 20 hours, 10^4 colony-forming particles per spot; for MIC: Pseudomonas, 20 h. The method, then:
as §1, §2

Each structure is given as a SMILES string. Values after ≈ are worked out from the molar mass of the structure shown.

In the case of `Nc1cccc2c1CN(c1c(F)cc3c(=O)c(C(=O)O)cn(C4CC4)c3c1F)C2` [Ref, 7-(4-amino-1,3-dihydro-isoindol-2-yl)-1-cyclopropyl-6,8-difluoro-1,4-dihydro-4-oxo-3-quinolinecarboxylic acid, reference compound], the MIC came out at 4 µg/mL (≈ 10.1 µM) against Klebsiella sp.; 1 µg/mL (≈ 2.52 µM) in the test on Providencia spp.; 1 µg/mL (≈ 2.52 µM) against Morganella morg.; 1 µg/mL (≈ 2.52 µM) against Enterocococus faecalis (strain 9790); 0.5 µg/mL (≈ 1.26 µM) against Enterocococus faecalis (strain 27101); 128 µg/mL (≈ 322 µM) against E. coli (strain 455/7). Further, the MIC in the test with E. coli (strain Neumann) stood at 0.5 µg/mL (≈ 1.26 µM); in the test with Staphyloccus aureus (strain 133), 0.03 µg/mL (≈ 0.0755 µM); in the test with Staphyloccus aureus (strain 1756), 0.03 µg/mL (≈ 0.0755 µM); with Pseudomonas aeruginasa it was 128 µg/mL (≈ 322 µM).

In the case of `CNC1C=CC(C)C2CN(c3c(F)cc4c(=O)c(C(=O)O)cn(C5CC5)c4c3F)CC12` (centres unmarked) [Example 6], the MIC is 0.06 µg/mL (≈ 0.14 µM) in the test on Klebsiella sp.; 0.13 µg/mL (≈ 0.303 µM) with Providencia spp.; 0.06 µg/mL (≈ 0.14 µM) against Morganella morg.; 0.06 µg/mL (≈ 0.14 µM) in the test on Enterocococus faecalis (strain 9790); 0.06 µg/mL (≈ 0.14 µM) against Enterocococus faecalis (strain 27101); 1 µg/mL (≈ 2.33 µM) in the test on E. coli (strain 455/7). Further, the MIC amounted to 0.03 µg/mL (≈ 0.0699 µM) against E. coli (strain Neumann), 0.02 µg/mL (≈ 0.0466 µM) against Staphyloccus aureus (strain 133), 0.02 µg/mL (≈ 0.0466 µM) with Staphyloccus aureus (strain 1756) and 2 µg/mL (≈ 4.66 µM) against Pseudomonas aeruginasa.

Regarding `CNC1C=CCC2CN(c3c(F)cc4c(=O)c(C(=O)O)cn(C5CC5)c4c3Cl)CC21` (centres unmarked) [Example 3, 8-chloro-1-cyclopropyl-6-fluoro-1,4-dihydro-7-(4-methylamino-1,3,3a,4,7,7a-hexahydro-isoindol-2-yl)-4-oxo-3-quinolinecarboxylic acid], the MIC against Klebsiella sp. turned out to be 0.03 µg/mL (≈ 0.0695 µM); against Providencia spp., 0.03 µg/mL (≈ 0.0695 µM); with Morganella morg., 0.03 µg/mL (≈ 0.0695 µM); in the test on Enterocococus faecalis (strain 9790), 0.02 µg/mL (≈ 0.0463 µM); against Enterocococus faecalis (strain 27101) it was 0.02 µg/mL (≈ 0.0463 µM); in the test on E. coli (strain 455/7), 0.25 µg/mL (≈ 0.579 µM). Besides, the MIC was found to be 0.02 µg/mL (≈ 0.0463 µM) with E. coli (strain Neumann), 0.02 µg/mL (≈ 0.0463 µM) with Staphyloccus aureus (strain 133), 0.02 µg/mL (≈ 0.0463 µM) with Staphyloccus aureus (strain 1756) and 0.5 µg/mL (≈ 1.16 µM) with Pseudomonas aeruginasa.

For the molecule `CNC1C=CCC2CN(c3cc4c(cc3F)c(=O)c(C(=O)O)cn4C3CC3)CC21` (centres unmarked) [Example 2], the MIC in the test with Providencia spp. came out at 0.13 µg/mL (≈ 0.327 µM); in the test with Enterocococus faecalis (strain 9790), 0.06 µg/mL (≈ 0.151 µM); in the test on Enterocococus faecalis (strain 27101), 0.06 µg/mL (≈ 0.151 µM); in the test on E. coli (strain 455/7) it was 2 µg/mL (≈ 5.03 µM); in the test with E. coli (strain Neumann) it was 0.03 µg/mL (≈ 0.0755 µM); with Staphyloccus aureus (strain 133), 0.02 µg/mL (≈ 0.0503 µM). Besides, the MIC against Staphyloccus aureus (strain 1756) came to 0.02 µg/mL (≈ 0.0503 µM); in the test on Pseudomonas aeruginasa it was 2 µg/mL (≈ 5.03 µM).

As to `CNC1C=CC(C)C2CN(c3cc4c(cc3F)c(=O)c(C(=O)O)cn4C3CC3)CC12` (centres unmarked) [Example 5], the MIC with Klebsiella sp. amounted to 0.06 µg/mL (≈ 0.146 µM); in the test with Providencia spp., 0.13 µg/mL (≈ 0.316 µM); in the test with Morganella morg., 0.06 µg/mL (≈ 0.146 µM); in the test on Enterocococus faecalis (strain 9790), 0.03 µg/mL (≈ 0.0729 µM); in the test with Enterocococus faecalis (strain 27101) it was 0.03 µg/mL (≈ 0.0729 µM); with E. coli (strain 455/7), 2 µg/mL (≈ 4.86 µM). In addition, the minimum inhibitory concentration (MIC) with E. coli (strain Neumann) was 0.06 µg/mL (≈ 0.146 µM); against Staphyloccus aureus (strain 133), 0.02 µg/mL (≈ 0.0486 µM); against Staphyloccus aureus (strain 1756), 0.02 µg/mL (≈ 0.0486 µM); against Pseudomonas aeruginasa, 2 µg/mL (≈ 4.86 µM).

With `CNC1C=CCC2CN(c3c(F)cc4c(=O)c(C(=O)O)cn(C5CC5)c4c3F)CC21` (centres unmarked) [Example 1, 1-cyclopropyl-6,8-difluoro-1,4-dihydro-7-(4-methylamino-1,3,3a,4,7,7a-hexahydro-isoindol-2-yl)-4-oxo-3-quinolinecarboxylic acid], the minimum inhibitory concentration (MIC) in the test on Klebsiella sp. was determined as 0.06 µg/mL (≈ 0.144 µM); in the test on Providencia spp., 0.06 µg/mL (≈ 0.144 µM); with Morganella morg., 0.06 µg/mL (≈ 0.144 µM); in the test on Enterocococus faecalis (strain 9790), 0.03 µg/mL (≈ 0.0722 µM); against Enterocococus faecalis (strain 27101), 0.03 µg/mL (≈ 0.0722 µM); in the test on E. coli (strain 455/7), 0.5 µg/mL (≈ 1.2 µM). Moreover, the MIC in the test with E. coli (strain Neumann) worked out at 0.02 µg/mL (≈ 0.0481 µM); against Staphyloccus aureus (strain 133) it was 0.02 µg/mL (≈ 0.0481 µM); against Staphyloccus aureus (strain 1756), 0.02 µg/mL (≈ 0.0481 µM); with Pseudomonas aeruginasa, 1 µg/mL (≈ 2.41 µM).

As to `CNC1C=CCC2CN(c3cc4c(c(C)c3F)c(=O)c(C(=O)O)cn4C3CC3)CC21` (centres unmarked) [Example 4], the minimal inhibitory concentration (MIC) was 0.25 µg/mL (≈ 0.608 µM) against Klebsiella sp.; 0.25 µg/mL (≈ 0.608 µM) against Providencia spp.; 0.5 µg/mL (≈ 1.22 µM) against Morganella morg.; 0.13 µg/mL (≈ 0.316 µM) with Enterocococus faecalis (strain 9790); 0.13 µg/mL (≈ 0.316 µM) with Enterocococus faecalis (strain 27101); 16 µg/mL (≈ 38.9 µM) against E. coli (strain 455/7). Moreover, the MIC worked out at 0.13 µg/mL (≈ 0.316 µM) with E. coli (strain Neumann), 0.03 µg/mL (≈ 0.0729 µM) in the test on Staphyloccus aureus (strain 133), 0.03 µg/mL (≈ 0.0729 µM) in the test on Staphyloccus aureus (strain 1756) and 16 µg/mL (≈ 38.9 µM) in the test on Pseudomonas aeruginasa.

For `CNC1C=CCC2CN(c3nc4c(cc3F)c(=O)c(C(=O)O)cn4-c3ccc(F)cc3F)CC21` (centres unmarked) [11 B], the MIC against Klebsiella sp. was 0.5 µg/mL (≈ 1.06 µM); against Providencia spp. it was 0.5 µg/mL (≈ 1.06 µM); in the test with Morganella morg. it was 0.5 µg/mL (≈ 1.06 µM); in the test with Enterocococus faecalis (strain 9790), 0.25 µg/mL (≈ 0.531 µM); with Enterocococus faecalis (strain 27101) it was 0.25 µg/mL (≈ 0.531 µM); against E. coli (strain 455/7), 16 µg/mL (≈ 34 µM). Besides, the MIC with E. coli (strain Neumann) is 0.25 µg/mL (≈ 0.531 µM); in the test with Staphyloccus aureus (strain 133) it was 0.06 µg/mL (≈ 0.128 µM); against Staphyloccus aureus (strain 1756), 0.06 µg/mL (≈ 0.128 µM); with Pseudomonas aeruginasa, 8 µg/mL (≈ 17 µM).

Turning to `CNC1C=CCC2CN(c3c(F)cc4c(=O)c(C(=O)O)cn(C5CC5)c4c3Cl)CC21` (centres unmarked) [9 B], the MIC values in the test on Klebsiella sp. is listed as 0,03 μg/ml; against Providencia spp., 0,06 μg/ml; with Morganella morg. it was 0,06 μg/ml; with Enterocococus faecalis (strain 9790), 0,02 μg/ml; in the test on Enterocococus faecalis (strain 27101) it was 0,03 μg/ml; in the test on E. coli (strain 455/7), 0,5 μg/ml. Also, the MIC values is 0,02 μg/ml against E. coli (strain Neumann), 0,03 μg/ml in the test with Staphyloccus aureus (strain 133), 0,03 μg/ml against Staphyloccus aureus (strain 1756) and 1 µg/mL (≈ 2.32 µM) in the test with Pseudomonas aeruginasa.

On to `CNC1C=CCC2CN(c3nc4c(cc3F)c(=O)c(C(=O)O)cn4C3CC3)CC21.Cl` (centres unmarked) [Example 10, 1-cyclopropyl-6-fluoro-1,4-dihydro-7-(4-methylamino-1,3,3a,4,7,7a-hexahydroisoindol-2-yl)-4-oxo-1,8-naphthyridine-3-carboxylic acid hydrochloride], for which the MIC with Klebsiella sp. came to 0.13 µg/mL; against Providencia spp., 0.25 µg/mL; in the test on Morganella morg., 0.25 µg/mL; in the test with Enterocococus faecalis (strain 9790) it was 0.25 µg/mL; against Enterocococus faecalis (strain 27101), 0.25 µg/mL; in the test on E. coli (strain 455/7), 8 µg/mL. For the same molecule, the MIC worked out at 0.06 µg/mL in the test on E. coli (strain Neumann), 0.06 µg/mL in the test on Staphyloccus aureus (strain 133), 0.06 µg/mL against Staphyloccus aureus (strain 1756) and 4 µg/mL against Pseudomonas aeruginasa.
